Results taken from PubChem BioAssay (NCI).
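Test compounds were applied to cells in 96-well plates for 48 hours at 5 doses. TGI is the concentration that stops growth completely.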

Assays:
Experiment in all cases: inhibition of tumour cell growth, NCI panel, 48 h
[1] = tested on: M14 melanoma
[2] = tested on: MOLT-4 leukemia
[3] = tested on: SR leukemia
[4] = tested on: HL-60(TB) leukemia
[5] = tested on: OVCAR-4 ovarian
[6] = tested on: A549 NSCLC
[7] = tested on: CCRF-CEM leukemia
[8] = tested on: SK-MEL-5 melanoma
[9] = tested on: SK-OV-3 ovarian
[10] = tested on: CAKI-1 renal
[11] = tested on: A498 renal
[12] = tested on: NCI-H460 lung
[13] = tested on: LOX IMVI melanoma
[14] = tested on: K-562 leukemia
[15] = tested on: SNB-75 CNS
[16] = tested on: SF-539 CNS
[17] = tested on: OVCAR-8 ovarian
[18] = tested on: ACHN renal
[19] = tested on: HCC-2998 colon
[20] = tested on: NCI-H23 lung

SMILES | TGI [1] | TGI [2] | TGI [3] | TGI [4] | TGI [5] | TGI [6] | TGI [7] | TGI [8] | TGI [9] | TGI [10] | TGI [11] | TGI [12] | TGI [13] | TGI [14] | TGI [15] | TGI [16] | TGI [17] | TGI [18] | TGI [19] | TGI [20]
C=C1CCCC(C)(C)C1CCC1(C)CCC(C(C)C(=O)OC)OO1 (stereo not given) | > 25 µM | > 25 µM | 9.78 µM | 9.16 µM | 17.4 µM | 4.15 µM | > 18 µM | > 25 µM | 9.43 µM | 0.749 µM | > 15.3 µM | 3.77 µM | 0.902 µM | > 25 µM | 7.56 µM | > 22.2 µM | > 19.8 µM | 2.75 µM | 11.5 µM | 8.99 µM
O=C(/C=C/c1ccc(C(F)(F)F)cc1)c1c([O-])on[n+]1-c1ccccc1 | 6.6 µM | 2.04 µM | 0.846 µM | 0.459 µM | 48.9 µM | 12.3 µM | 0.188 µM | 12.7 µM | > 63.4 µM | 0.879 µM | 14.8 µM | 6.44 µM | 1.56 µM | > 100 µM | 5.87 µM | 3.98 µM | 5.38 µM | 2.94 µM | 4.18 µM | 10 µM
CNC(=O)NCCN1CC2CCC(CC2)C1 | > 10 µM | > 10 µM | > 10 µM | > 10 µM | > 10 µM | > 10 µM | > 10 µM | > 10 µM | > 10 µM | > 10 µM | > 10 µM | > 10 µM | > 10 µM | > 10 µM | > 10 µM | > 10 µM | > 10 µM | > 10 µM | > 10 µM | > 10 µM
COC(=O)c1ccccc1CC(Cc1ccc2c(c1)CCC2)C(=O)OC (stereo not given) | > 100 µM | > 100 µM | > 100 µM | > 100 µM | > 100 µM | > 100 µM | > 100 µM | 84.1 µM | > 100 µM | > 100 µM | > 100 µM | > 100 µM | > 100 µM | > 100 µM | > 100 µM | > 100 µM | > 100 µM | > 100 µM | > 100 µM | > 100 µM
Cn1c(=O)c2c(nc3sc4c(n32)C(=O)c2c(O)ccc(O)c2C4=O)n(C)c1=O | 6.48 µM | 5.08 µM | 3.23 µM | 2.83 µM | 2.92 µM | 59.6 µM | 1.9 µM | 8.35 µM | > 100 µM | 18.6 µM | 57.4 µM | > 59.4 µM | 2.75 µM | 2.44 µM | 16.1 µM | 15.6 µM | 11 µM | 8.33 µM | 17.5 µM | 21.2 µM
NC(=O)c1cccc(N=c2oc3ccc(Br)cc3cc2-c2nc3ccccc3[nH]2)c1 | 32.3 µM | 43.4 µM | > 100 µM | 51.3 µM | 47.5 µM | 26.4 µM | 17.3 µM | 11.3 µM | 32.7 µM | 34.3 µM | 35.8 µM | 43.6 µM | 37.5 µM | 96.1 µM | 23.6 µM | 14.4 µM | 28.2 µM | 32.2 µM | 34.9 µM | 32.7 µM
Clc1ccc(C(Cc2cccc(Cl)c2)c2c(Cl)nc(N3CCNCC3)nc2Cl)cc1 (stereo not given) | 26.2 µM | 24.6 µM | 17.5 µM | 23.1 µM | 31.3 µM | 29.5 µM | 31.9 µM | 29.7 µM | 27.1 µM | 24.4 µM | 28.5 µM | 30.9 µM | 25.5 µM | 26.5 µM | 26.7 µM | 35.2 µM | 38.4 µM | 28.8 µM | 28.4 µM | 34.1 µM
N#CC1=C(c2ccccc2)C(=C2Nc3ccccc3N2)C2S/C(=C\c3ccccc3)C(=O)N2C1=N (stereo not given) | 6.56 µM | 7.79 µM | 4.87 µM | 6.53 µM | 6.4 µM | 12.9 µM | 6.66 µM | 3.3 µM | 3.62 µM | 4.01 µM | 7.73 µM | 10.2 µM | 3.43 µM | 50.5 µM | 3.77 µM | 3.35 µM | 5.19 µM | 10.1 µM | 13.3 µM | 4.49 µM
NC(=O)c1ncn(C2OC(CO)C(O)C2O)c1NC=O (stereo not given) | > 100 µM | > 100 µM | > 100 µM | > 100 µM | > 100 µM | > 100 µM | > 100 µM | > 100 µM | > 100 µM | > 100 µM | > 100 µM | > 100 µM | > 100 µM | > 100 µM | > 100 µM | > 100 µM | > 100 µM | > 100 µM | > 100 µM | > 100 µM
